Source: PubChem BioAssay (NCI)
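All cell lines were grown in 96-well plates and treated with compound for 48 hours. TGI marks complete inhibition of growth.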

Assays:
Experiment in all cases: inhibition of tumour cell growth, NCI panel, 48 h
[1] = system: CAKI-1 renal
[2] = system: COLO 205 colon
[3] = system: DMS 114 small cell lung
[4] = system: EKVX NSCLC
[5] = system: NCI-H522 lung
[6] = system: SF-295 CNS
[7] = system: SNB-75 CNS
[8] = system: SNB-78 CNS
[9] = system: TK-10 renal
[10] = system: UACC-257 melanoma

SMILES	TGI [1] [µM]	TGI [2] [µM]	TGI [3] [µM]	TGI [4] [µM]	TGI [5] [µM]	TGI [6] [µM]	TGI [7] [µM]	TGI [8] [µM]	TGI [9] [µM]	TGI [10] [µM]
Nc1ccc(C(=O)N/C(=C\c2cccc([N+](=O)[O-])c2)c2nc3c4c(ccc3[nH]2)C(=O)c2ccccc2C4=O)cc1	> 100	> 100	> 100	> 100	71.2	> 100	17.8	> 100	77	> 100
COc1ccc2nc3cccc(C(=O)NCCN(C)C)c3nc2c1	> 20.9	> 24.3	3.45	12.7	> 100	> 22.8	21.6	9.01	8.6	7.74
COc1ccc(C(=O)O/N=C2/CCC/C2=C\c2ccccc2)cc1	> 100	> 100	> 100	> 100	> 100	> 100	> 92.9	> 100	> 100	> 100
Nc1c(-c2nc3ccccc3[nH]2)sc(=S)n1-c1ccc(Cl)cc1	54.6	> 100	42	67.4	58.1	43.6	47.6	66.3	56.1	65.6
NCP(=O)(O)OCC(=O)O	> 100	> 100	> 100	> 100	> 100	> 100	> 100	> 100	> 100	> 100
Cc1ccc(S(=O)OC23CC4CC(CC(C4)C2)C3)cc1 (stereo not given)	> 100	> 100	> 100	> 100	> 100	> 100	> 100	> 100	> 100	> 100
